Assay results taken from patent US10633389B2, “CARM1 inhibitors and uses thereof” (Epizyme, Inc., priority 2013, dated 2020).

Tested on: asymmetric di-methyl PABP1 in RKO cells
Experiment: RKO methylation assay, In Cell Western (ICW) for asymmetric di-methyl PABP1
Type: cell-based
Conditions: Homo sapiens, RKO, Cellular potencies, ICW PABP1me2a
Summary of the method: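 RKO cells treated with compound for 48 h at 37 °C, then fixed, permeabilized and immunostained for asymmetric di-methyl PABP1, with DRAQ5 as DNA stain. Infrared 700/800 nm signal ratio normalized to DMSO and 20 μM reference-compound controls; IC50 from triplicate wells.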

SMILES | IC50 [µM]
CNCC(O)COc1cccc(-c2nc(C(=O)NCC3CCOCC3)cc(N(C)C3CCOCC3)n2)c1 (stereo not drawn) [Example 548-1a] | 10 to 20
CNCC(O)COc1cccc(-c2nc(N3CCN(C)C(=O)C3)cc(N(C)C3CCOCC3)n2)c1 (stereo not drawn) [Example 549-1a] | 10 to 20
CNCC(O)COc1cccc(-c2nc(N3CC4(CCNCC4)c4ccccc43)cc(N(C)C3CCOCC3)n2)c1 (stereo not drawn) [Example 559-1a] | 10 to 20
CNCC(O)COc1cccc(-c2nc(N3CCNCC3)c(C)c(N(C)C3CCOCC3)n2)c1 (stereo not drawn) [Example 560-1a] | 10 to 20
CNCC(O)COc1cc(Cl)cc(-c2nc(-c3cnc4ccccn34)c(C)c(N(C)C3CCOCC3)n2)c1 (stereo not drawn) [Example 561-1a] | 10 to 20
CNCC(O)COc1cccc(-c2nc(N(C)C3CCOCC3)cc(N3C[C@H]4C[C@@H]3CN4)n2)c1 (stereo partly drawn) [Example 562-1a] | 10 to 20
CNCC(O)COc1cccc(-c2nc(-c3cnc4n3CCNC4)cc(N(C)C3CCOCC3)n2)c1 (stereo not drawn) [Example 563-1a] | 10 to 20
CNCC(O)COc1cccc(-c2nc(-c3cnc4ccnn4c3)cc(N(C)C3CCOCC3)n2)c1 (stereo not drawn) [Example 564-1a] | 10 to 20
CCOC(=O)c1sc(-c2cc(N(C)C3CCOCC3)nc(-c3cccc(OCC(O)CNC)c3)n2)nc1C (stereo not drawn) [Example 565-1a] | 10 to 20
CNCC(O)COc1cccc(-c2nc(N3CC4CCC(C3)O4)cc(N(C)C3CCOCC3)n2)c1 (stereo not drawn) [Example 566-1a] | 10 to 20
CNCC(O)COc1cccc(-c2nc(N(C)C3CCOCC3)c(C)c(N3CCNC[C@@H]3C)n2)c1 (stereo partly drawn) [Example 567-1a] | 10 to 20
CNCC(O)COc1cccc(-c2nc(N(C)C3CCOCC3)cc(-n3nc(C)cc3C)n2)c1 (stereo not drawn) [Example 568-1a] | 10 to 20
CNCC(O)COc1cccc(-c2nc(-c3sc(C)nc3C)cc(N(C)C3CCOCC3)n2)c1 (stereo not drawn) [Example 569-1a] | 10 to 20
CNCC(O)COc1cccc(-c2nc(-c3cc4ccccc4o3)cc(N(C)C3CCOCC3)n2)c1 (stereo not drawn) [Example 570-1a] | 10 to 20
CNC[C@@H](O)COc1cccc(-c2nc(-c3c[nH]c4ncncc34)cc(N(C)C3CCOCC3)n2)c1 [Example 571-1a] | 10 to 20
CNCC(O)COc1cccc(-c2nc(-c3cnc(CO)n3C)cc(N(C)C3CCOCC3)n2)c1 (stereo not drawn) [Example 572-1a] | 10 to 20
CNCC(O)COc1cccc(-c2nc(SC)cc(N(C)C3CCOCC3)n2)c1 (stereo not drawn) [Example 573-1a] | 10 to 20
CNCC(O)COc1cc(Cl)cc(-c2nc(-c3ccncc3)c(C3CC3)c(N(C)C3CCOCC3)n2)c1 (stereo not drawn) [Example 574-1a] | 10 to 20
CNCC(O)COc1cccc(-c2nc(N3CCNC(=O)C3)cc(N(C)C3CCOCC3)n2)c1 (stereo not drawn) [Example 575-1a] | 10 to 20
CNCC(O)COc1cccc(-c2nc(N3CCN4C(=O)OC[C@@H]4C3)cc(N(C)C3CCOCC3)n2)c1 (stereo partly drawn) [Example 576-1a] | 10 to 20
CNCC(O)COc1cc(Cl)cc(-c2nc(C(=O)N(C)CC3CCOCC3)cc(N(C)C3CCOCC3)n2)c1 (stereo not drawn) [Example 577-1a] | 10 to 20
CNCC(O)COc1cccc(-c2nc(N3CCN(CCF)[C@@H](C)C3)cc(N(C)C3CCOCC3)n2)c1 (stereo partly drawn) [Example 578-1a] | 10 to 20
CNCC(O)COc1cccc(-c2nc(N3CCC4(CCO4)CC3)cc(N(C)C3CCOCC3)n2)c1 (stereo not drawn) [Example 579-1a] | 10 to 20

SMILES | IC50 [µM]
CNCC(O)COc1cccc(-c2nc(-c3cncn3C)cc(N(C)C3CCOCC3)n2)c1 (stereo not drawn) [Example 580-1a] | 10 to 20
CNCC(O)COc1cccc(-c2nc(N3CCN(C(=O)OC)[C@@H](C)C3)cc(N(C)C3CCOCC3)n2)c1 (stereo partly drawn) [Example 581-1a] | 10 to 20
CNCC(O)COc1cc(Cl)cc(-c2nc(-c3ccnc(N(C)C)c3)cc(N(C)C3CCOCC3)n2)c1 (stereo not drawn) [Example 609-1a] | 10 to 20
CNCC(O)COc1cc(Cl)cc(-c2nc(-c3cnn(C)c3)cc(N(C)C3CCOCC3)n2)c1 (stereo not drawn) [Example 610-1a] | 10 to 20
CNCC(O)COc1cc(Cl)cc(-c2nc(-c3ccncc3)c(Br)c(N(C)C3CCOCC3)n2)c1 (stereo not drawn) [Example 611-1a] | 10 to 20
CNCC(O)COc1cc(Cl)cc(-c2nc(-c3cnc4ccccc4n3)c(C)c(N(C)C3CCOCC3)n2)c1 (stereo not drawn) [Example 612-1a] | 10 to 20
CNCC(O)COc1cccc(-c2nc(-c3ccc(C(F)(F)F)nc3)cc(N(C)C3CCOCC3)n2)c1 (stereo not drawn) [Example 613-1a] | 10 to 20
CNCC(O)COc1cc(Cl)cc(-c2nc(-c3ccc(N(C)C)nc3)c(C)c(N(C)C3CCOCC3)n2)c1 (stereo not drawn) [Example 614-1a] | 10 to 20
CNCC(O)COc1cccc(-c2nc(C3CCNCC3)cc(N(C)C3CCOCC3)n2)c1 (stereo not drawn) [Example 615-1a] | 10 to 20
CNCC(O)COc1cccc(-c2nc(-c3cccc4ncccc34)cc(N(C)C3CCOCC3)n2)c1 (stereo not drawn) [Example 616-1a] | 10 to 20
CNCC(O)COc1cc(Cl)cc(-c2nc(-c3cn[nH]c3)c(C)c(N(C)C3CCOCC3)n2)c1 (stereo not drawn) [Example 617-1a] | 10 to 20
CNCC(O)COc1cc(Cl)cc(-c2nc(N(C)C3CCOCC3)c(C)c(-n3cccn3)n2)c1 (stereo not drawn) [Example 618-1a] | 10 to 20
C=C(C)c1cc(N(C)C2CCOCC2)nc(-c2cc(Cl)cc(OCC(O)CNC)c2)n1 (stereo not drawn) [Example 619-1a] | 10 to 20
CNCC(O)COc1cccc(-c2nc(-c3cnc4nccn4c3)cc(N(C)C3CCOCC3)n2)c1 (stereo not drawn) [Example 620-1a] | 10 to 20
CNCC(O)COc1cccc(-c2nc(C3=CCCC3)cc(N(C)C3CCOCC3)n2)c1 (stereo not drawn) [Example 621-1a] | 10 to 20
CNCC(O)COc1cccc(-c2nc(-c3cccc(C#N)c3)cc(N(C)C3CCOCC3)n2)c1 (stereo not drawn) [Example 622-1a] | 10 to 20
CNCC(O)COc1cc(Cl)cc(-c2nc(C(=O)OC)cc(N(C)C3CCOCC3)n2)c1 (stereo not drawn) [Example 623-1a] | 10 to 20
CNCC(O)COc1cccc(-c2nc(-c3nc(C)cs3)cc(N(C)C3CCOCC3)n2)c1 (stereo not drawn) [Example 624-1a] | 10 to 20
CNCC(O)COc1cc(Cl)cc(-c2nc(-c3ccncc3)cc(N3CCOCC3)n2)c1 (stereo not drawn) [Example 632-1a] | ≥ 20
CNCC(O)COc1cccc(-c2nc(NC3CCOCC3)c(C)c(N3CCN(C(C)C)CC3)n2)c1 (stereo not drawn) [Example 644-1a] | ≥ 20
CNCC(O)COc1cccc(-c2nc(NC3CCOCC3)cc(-c3ccc4c(c3)OCCO4)n2)c1 (stereo not drawn) [Example 657-1a] | ≥ 20
CNCC(O)COc1cccc(-c2nc(NC3CCOCC3)cc(-c3ccc(OC)c(OC)c3)n2)c1 (stereo not drawn) [Example 658-1a] | ≥ 20

Second part, the compound after the results:

IC50 [µM] | SMILES
< 5 | CC[C@H]1CN(c2cc(N(C)C3CCOCC3)nc(-c3cccc(OCC(O)CNC)c3)n2)CCN1 (stereo partly drawn) [Example 505-1a]
< 5 | CNCC(O)COc1cc(Cl)cc(-c2nc(Nc3cncnc3)c(C)c(N(C)C3CCOCC3)n2)c1 (stereo not drawn) [Example 506-1a]
< 5 | CNC[C@@H](O)COc1cccc(-c2nc(-c3cnc4cnccn34)cc(N(C)C3CCOCC3)n2)c1 [Example 507-1a]
< 5 | CNCC(O)COc1cc(Cl)cc(-c2nc(C(=O)NCC3CCOCC3)cc(N(C)C3CCOCC3)n2)c1 (stereo not drawn) [Example 508-1a]
5 to 10 | CNCC(O)COc1cccc(-c2nc(-c3ccnc(C(=O)NC)c3)cc(N(C)C3CCOCC3)n2)c1 (stereo not drawn) [Example 510-1a]
5 to 10 | CNC[C@@H](O)COc1cccc(-c2nc(-c3cn(S(C)(=O)=O)c4ncncc34)cc(N(C)C3CCOCC3)n2)c1 [Example 511-1a]
5 to 10 | CNCC(O)COc1cccc(-c2nc(-c3ccc(N4CCOCC4)nn3)cc(N(C)C3CCOCC3)n2)c1 (stereo not drawn) [Example 512-1a]
5 to 10 | CNCC(O)COc1cccc(-c2nc(Nc3ncc(C)cn3)cc(N(C)C3CCOCC3)n2)c1 (stereo not drawn) [Example 513-1a]
5 to 10 | CNCC(O)COc1cccc(-c2nc(-c3cnc4c(C(=O)N(C)C)cnn4c3)cc(N(C)C3CCOCC3)n2)c1 (stereo not drawn) [Example 514-1a]
5 to 10 | CNCC(O)COc1cccc(-c2nc(-c3cnn(CC(C)C)c3)cc(N(C)C3CCOCC3)n2)c1 (stereo not drawn) [Example 516-1a]
5 to 10 | CNCC(O)COc1cccc(-c2nc(-c3cnc(C)n3C)cc(N(C)C3CCOCC3)n2)c1 (stereo not drawn) [Example 517-1a]
5 to 10 | CNCC(O)COc1cccc(-c2nc(-c3nc(C)cn3C)cc(N(C)C3CCOCC3)n2)c1 (stereo not drawn) [Example 519-1a]
5 to 10 | CNCC(O)COc1cccc(-c2nc(-c3nc(C)c[nH]3)cc(N(C)C3CCOCC3)n2)c1 (stereo not drawn) [Example 521-1a]
5 to 10 | CNCC(O)COc1cc(Cl)cc(-c2nc(-c3ccncc3C3CC3)cc(N(C)C3CCOCC3)n2)c1 (stereo not drawn) [Example 522-1a]
5 to 10 | CNCC(O)COc1cccc(-c2nc(N3CCO[C@H](CN)C3)cc(N(C)C3CCOCC3)n2)c1 (stereo partly drawn) [Example 524-1a]
5 to 10 | CNCC(O)COc1cccc(-c2nc(-c3cncnc3)cc(N(C)C3CCOCC3)n2)c1 (stereo not drawn) [Example 525-1a]
5 to 10 | CNC[C@@H](O)COc1cccc(-c2nc(-c3c[nH]c4ncncc34)c(C)c(N(C)C3CCOCC3)n2)c1 [Example 526-1a]
5 to 10 | CNCC(O)COc1cccc(-c2nc(-c3c(C)nn(C)c3C)cc(N(C)C3CCOCC3)n2)c1 (stereo not drawn) [Example 528-1a]
5 to 10 | CNCC(O)COc1cccc(-c2nc(-c3cn(C)c(C)n3)cc(N(C)C3CCOCC3)n2)c1 (stereo not drawn) [Example 529-1a]
5 to 10 | CNCC(O)COc1cccc(-c2nc(N3CCN(C)CC3)cc(N(C)C3CCOCC3)n2)c1 (stereo not drawn) [Example 531-1a]
5 to 10 | CNCC(O)COc1cccc(-c2nc(-c3cnc4ncnn4c3)cc(N(C)C3CCOCC3)n2)c1 (stereo not drawn) [Example 536-1a]
5 to 10 | CNCC(O)COc1cccc(-c2nc(-c3ccncc3)c(C)c(N(C)C3CCOCC3)n2)c1 (stereo not drawn) [Example 537-1a]
10 to 20 | CNCC(O)COc1cccc(-c2nc(N3CCC[C@H](O)C3)cc(N(C)C3CCOCC3)n2)c1 (stereo partly drawn) [Example 538-1a]
10 to 20 | CNCC(O)COc1cccc(-c2nc(-c3ccnc(OC)c3)cc(N(C)C3CCOCC3)n2)c1 (stereo not drawn) [Example 541-1a]
10 to 20 | CNCC(O)COc1cccc(-c2nc(N(C)C3CCOCC3)cc(-n3cccn3)n2)c1 (stereo not drawn) [Example 542-1a]
10 to 20 | CNCC(O)COc1cccc(-c2nc(N(C)C3CCOCC3)cc(N3C[C@@H]4C[C@H]3CN4C)n2)c1 (stereo partly drawn) [Example 543-1a]
10 to 20 | CNCC(O)COc1cccc(-c2nc(C(C)=O)c(C)c(N(C)C3CCOCC3)n2)c1 (stereo not drawn) [Example 544-1a]
